Test results: ChEMBL document CHEMBL4257082, “Nhe3-binding compounds and methods for inhibiting phosphate transport” (2016)

What was measured:
[1] = target: Sodium/hydrogen exchanger 3 (Rattus norvegicus, UniProt P26433); assay: Inhibition of rat NHE3
[2] = target: Sodium/hydrogen exchanger 1 (Rattus norvegicus, UniProt P26431); assay: Inhibition of rat NHE1
[3] = target: T1, Sodium/hydrogen exchanger 2 (Rattus norvegicus, UniProt P48763); assay: Inhibition of rat NHE2
T1 sequence (P48763 whole entry): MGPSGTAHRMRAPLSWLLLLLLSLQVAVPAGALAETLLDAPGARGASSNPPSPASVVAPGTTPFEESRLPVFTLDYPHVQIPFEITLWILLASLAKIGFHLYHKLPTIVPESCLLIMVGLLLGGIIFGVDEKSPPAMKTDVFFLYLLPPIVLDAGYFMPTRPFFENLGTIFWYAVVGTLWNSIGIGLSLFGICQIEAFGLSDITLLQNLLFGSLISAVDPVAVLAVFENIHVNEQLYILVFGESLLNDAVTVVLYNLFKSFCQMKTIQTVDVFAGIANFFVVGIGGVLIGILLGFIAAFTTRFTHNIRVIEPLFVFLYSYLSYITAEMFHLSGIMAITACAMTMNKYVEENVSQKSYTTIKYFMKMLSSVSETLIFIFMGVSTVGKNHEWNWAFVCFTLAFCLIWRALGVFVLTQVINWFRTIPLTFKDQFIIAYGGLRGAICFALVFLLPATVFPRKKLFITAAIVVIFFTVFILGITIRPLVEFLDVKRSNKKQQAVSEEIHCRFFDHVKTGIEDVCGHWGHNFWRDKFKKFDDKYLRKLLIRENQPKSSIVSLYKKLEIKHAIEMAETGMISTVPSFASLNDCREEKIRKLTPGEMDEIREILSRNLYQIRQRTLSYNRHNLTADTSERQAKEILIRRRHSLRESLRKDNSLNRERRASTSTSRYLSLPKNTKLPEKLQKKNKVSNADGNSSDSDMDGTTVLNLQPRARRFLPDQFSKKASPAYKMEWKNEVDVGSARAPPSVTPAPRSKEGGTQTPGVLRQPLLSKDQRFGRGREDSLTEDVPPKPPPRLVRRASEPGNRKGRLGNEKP

Sequence of Sodium/hydrogen exchanger 3 (P26433 whole entry): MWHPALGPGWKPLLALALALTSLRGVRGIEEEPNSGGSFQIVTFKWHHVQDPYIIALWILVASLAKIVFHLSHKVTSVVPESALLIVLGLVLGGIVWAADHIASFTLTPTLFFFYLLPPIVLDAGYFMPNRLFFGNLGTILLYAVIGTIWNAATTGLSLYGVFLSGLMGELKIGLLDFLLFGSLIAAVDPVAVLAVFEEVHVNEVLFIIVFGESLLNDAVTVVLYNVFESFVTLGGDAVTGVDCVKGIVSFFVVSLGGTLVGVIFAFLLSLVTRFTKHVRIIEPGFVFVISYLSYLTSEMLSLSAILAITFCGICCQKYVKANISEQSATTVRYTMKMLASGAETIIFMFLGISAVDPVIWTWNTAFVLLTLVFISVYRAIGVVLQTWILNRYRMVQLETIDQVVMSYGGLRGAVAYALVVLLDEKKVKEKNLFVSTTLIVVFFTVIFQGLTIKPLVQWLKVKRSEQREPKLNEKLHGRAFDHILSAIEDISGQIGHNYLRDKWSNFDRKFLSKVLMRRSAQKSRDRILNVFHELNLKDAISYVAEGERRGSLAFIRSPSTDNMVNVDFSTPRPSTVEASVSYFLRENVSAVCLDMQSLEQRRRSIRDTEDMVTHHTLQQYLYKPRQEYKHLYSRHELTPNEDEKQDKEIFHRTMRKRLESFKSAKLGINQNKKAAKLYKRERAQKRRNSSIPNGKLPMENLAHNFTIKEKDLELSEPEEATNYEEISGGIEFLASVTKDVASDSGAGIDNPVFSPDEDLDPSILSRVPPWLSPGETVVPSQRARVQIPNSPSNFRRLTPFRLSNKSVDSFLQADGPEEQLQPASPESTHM
Sequence of Sodium/hydrogen exchanger 1 (P26431 whole entry): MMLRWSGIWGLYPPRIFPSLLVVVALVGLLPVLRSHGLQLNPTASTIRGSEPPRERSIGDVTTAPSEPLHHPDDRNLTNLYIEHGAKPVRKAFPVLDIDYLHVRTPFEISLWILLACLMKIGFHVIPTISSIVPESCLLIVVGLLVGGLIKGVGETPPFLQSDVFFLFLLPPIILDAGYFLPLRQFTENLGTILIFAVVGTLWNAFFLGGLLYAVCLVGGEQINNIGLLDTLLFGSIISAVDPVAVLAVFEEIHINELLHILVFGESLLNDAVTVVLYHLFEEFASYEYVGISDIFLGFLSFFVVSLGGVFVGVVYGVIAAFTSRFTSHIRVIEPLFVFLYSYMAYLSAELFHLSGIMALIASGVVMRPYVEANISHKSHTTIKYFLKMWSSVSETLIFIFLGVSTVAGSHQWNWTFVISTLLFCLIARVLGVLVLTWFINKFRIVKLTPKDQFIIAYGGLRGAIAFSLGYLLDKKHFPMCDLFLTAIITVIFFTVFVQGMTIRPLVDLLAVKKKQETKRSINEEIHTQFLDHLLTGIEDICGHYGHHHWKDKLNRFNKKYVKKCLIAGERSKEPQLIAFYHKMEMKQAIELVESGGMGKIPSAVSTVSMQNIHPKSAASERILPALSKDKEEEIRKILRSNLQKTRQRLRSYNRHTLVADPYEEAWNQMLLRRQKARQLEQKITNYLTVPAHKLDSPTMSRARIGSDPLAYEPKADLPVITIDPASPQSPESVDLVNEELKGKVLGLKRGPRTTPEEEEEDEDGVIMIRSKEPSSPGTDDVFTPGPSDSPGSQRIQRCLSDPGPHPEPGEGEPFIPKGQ

How did the IC50 [1] turn out when `CN(C)c1nc(N)c(C(=O)NC(=N)N)nc1Cl` was run?
Its IC50 is 14 µM.

And the IC50 [2]?
The IC50 was 0.023 µM.

And the IC50 [3]?
The IC50 was 0.25 µM.
